Reference: US4521538A (Medosan Industrie Biochimiche Riunite S.p.A., priority 1982, dated 1985)
Like-named read-outs stand apart in the source and are kept apart here.

What was measured:
[1] = Analgesic activity, phenylquinone-induced writhing test; format: in vivo
Method: The inhibiting effect on the abdominal contractions induced by phenyl-p-quinone was calculated by the following formula: [formula]
Table II lists the doses, routes of administration and their efficacy expressed as percentage of protection.

Solubility = format: physicochemical
in vivo [2] = details: rat
[3] = Antitussive activity (method of Y. Kase); format: in vivo, albino male Guinea-pigs
Method: The antitussive effect on albino male Guinea-pigs weighing 300 g was evaluated using the method described by Y. Kase (Selected Pharmacological Testing Methods, p. 363, Marcel Dekker Inc., New York, 1968).

[4] = format: in vivo, male Wistar rats; details: for % incidence / 10 / gastric damage index / mean No. of lesions / mean severity: four days; for mean severity: scale 0 (no lesion) to 5 (perforations)
Method: Male Wistar rats weighing 180 g were randomized into groups of 10. Three doses of each compound were administered. One group received the vehicle alone (10 ml/kg b.w.). Each dose was given orally for four days consecutively and the rats were sacrificed on the fifth day for necropsy. The ulcerogenic effect was evaluated by the following scale:
(1) each haemorrhagic point at least 1 mm in diameter was scored as 1 lesion,
(2) haemorrhagic points less than 1 mm in diameter were scored in the following manner:
(c) 20 to 29=three lesions
(2) gastric mucosal irritation without haemorrhage: 1
(3) haemorrhagic points less than 1 mm in diameter: 2
(4) haemorrhagic points between 1 and 3 mm in diameter: 3
(5) haemorrhagic points larger than 3 mm in diameter: 4
By means of this scale it was possible to obtain the gastric damage index: [formula]

[5] = Mucolytic activity in vitro, consistency of human expectoration
Method: The experiment was carried out "in vitro" according to the method of R. S. Hirsch (Bull. […] Table IV lists the percentage decrease of the expectoration consistency provoked by the compound of this invention in comparison with dithiothreitol and acetylcysteine which are known mucolytic agents.

[6] = Antiinflammatory activity, carrageenin-induced oedema test; format: in vivo, rats
Method: This effect was evaluated by means of an experimental model reproducing acute inflammation in rats: for this purpose the carrageenin-induced oedema test was employed following the method described by C. A. Winter (J. Pharmac. Exp. […] Wong, J. F. Gardocki and T. P. Pruss, J. Pharmac. Exp. Ther. 185 (1): 127, 1973). Table I lists the tested compounds, the concentration thereof, routes of administration and relative percentage oedema inhibitions; the data are commented upon at the end of the Tables.

healthy animals = test: General observation of toxic effects in animals at the doses used
From the text: (§1) The composition that had been administered via the oral and/or parenteral route, was in suspension of 0.5% carboxymethylcellulose in neutral pH physiological saline solution.

[7] = Antipyretic activity, yeast-induced hyperthermia; format: in vivo, albino male Wistar rats
From the text: as §1

in vivo [8] = details: mouse

COc1ccccc1OC(=O)Cc1ccc(C(=O)c2ccc(C)cc2)n1C [1-methyl-5-p-toluoylpyrrole-2-acetic acid guaiacyl ester]
% protection ([1]; 5 mg/kg i.p.): 30.0%
% protection ([1]; 5 mg/kg per os): 30.0%
% protection ([1]; 10 mg/kg i.p.): 62.5%
% protection ([1]; 10 mg/kg per os): 58.6%
% protection ([1]; 20 mg/kg i.p.): 78.0%
% protection ([1]; 20 mg/kg per os): 79.4%
analgesic action in words ([1]; oral and/or parenteral): marked analgesic action
Solubility (Solubility): soluble in the usual organic solvents
LD50 (in vivo [2]; ip): 1180 mg/kg
LD50 (in vivo [2]; po): > 1500 mg/kg
% inhibition, amplitude of coughs ([3]; 50 mg/kg i.p.): 18%
% inhibition, frequency of coughs ([3]; 50 mg/kg i.p.): 26%
% inhibition, amplitude of coughs ([3]; 50 mg/kg per os): 16%
% inhibition, frequency of coughs ([3]; 50 mg/kg per os): 22%
% inhibition, amplitude of coughs ([3]; 75 mg/kg i.p.): 25%
% inhibition, frequency of coughs ([3]; 75 mg/kg i.p.): 50%
% inhibition, amplitude of coughs ([3]; 75 mg/kg per os): 19%
% inhibition, frequency of coughs ([3]; 75 mg/kg per os): 45%
% inhibition, amplitude of coughs ([3]; 100 mg/kg i.p.): 40%
% inhibition, frequency of coughs ([3]; 100 mg/kg i.p.): 55%
% inhibition, amplitude of coughs ([3]; 100 mg/kg per os): 38%
% inhibition, frequency of coughs ([3]; 100 mg/kg per os): 56%
antitussive activity in words ([3]; in vivo tests): good mucolytic and antitussive activity
% incidence / 10 ([4]; 50 mg/kg orally): 7
gastric damage index ([4]; 50 mg/kg orally): 9
mean No. of lesions ([4]; 50 mg/kg orally): 1
mean severity ([4]; 50 mg/kg orally): 1
% incidence / 10 ([4]; 100 mg/kg orally): 8
gastric damage index ([4]; 100 mg/kg orally): 11
mean No. of lesions ([4]; 100 mg/kg orally): 1
mean severity ([4]; 100 mg/kg orally): 2
% incidence / 10 ([4]; 200 mg/kg orally): 8
gastric damage index ([4]; 200 mg/kg orally): 12
mean No. of lesions ([4]; 200 mg/kg orally): 2
mean severity ([4]; 200 mg/kg orally): 2
ulcerogenic effect in words ([4]; number of gastric lesions and their severity (Table VI)): moderate
gastrointestinal tolerability ([4]; rat, in vivo): perfectly tolerated by the gastrointestinal tract
% decrease of expectoration consistency ([5]; 1.0 M (9%), 12 experiments): 52%
mucolytic activity in words ([5]; described as in vivo tests): good mucolytic and antitussive activity
Oedema % inhibition ([6]; 25 mg/kg i.p., 2 h): 33.5%
Oedema % inhibition ([6]; 25 mg/kg i.p., 4 h): 30.0%
Oedema % inhibition ([6]; 25 mg/kg i.p., 6 h): 25.0%
Oedema % inhibition ([6]; 25 mg/kg i.p., 24 h): 7.0%
Oedema % inhibition ([6]; 25 mg/kg per os, 2 h): 27.0%
Oedema % inhibition ([6]; 25 mg/kg per os, 4 h): 29.0%
Oedema % inhibition ([6]; 25 mg/kg per os, 6 h): 28.0%
Oedema % inhibition ([6]; 25 mg/kg per os, 24 h): 3.2%
Oedema % inhibition ([6]; 50 mg/kg i.p., 2 h): 55.0%
Oedema % inhibition ([6]; 50 mg/kg i.p., 4 h): 51.6%
Oedema % inhibition ([6]; 50 mg/kg i.p., 6 h): 49.0%
Oedema % inhibition ([6]; 50 mg/kg i.p., 24 h): 9.2%
Oedema % inhibition ([6]; 50 mg/kg per os, 2 h): 49.0%
Oedema % inhibition ([6]; 50 mg/kg per os, 4 h): 53.0%
Oedema % inhibition ([6]; 50 mg/kg per os, 6 h): 51.0%
Oedema % inhibition ([6]; 50 mg/kg per os, 24 h): 5.3%
Oedema % inhibition ([6]; 100 mg/kg i.p., 2 h): 80.0%
Oedema % inhibition ([6]; 100 mg/kg i.p., 4 h): 78.0%
Oedema % inhibition ([6]; 100 mg/kg i.p., 6 h): 70.0%
Oedema % inhibition ([6]; 100 mg/kg i.p., 24 h): 9.5%
Oedema % inhibition ([6]; 100 mg/kg per os, 2 h): 71.6%
Oedema % inhibition ([6]; 100 mg/kg per os, 4 h): 77.8%
Oedema % inhibition ([6]; 100 mg/kg per os, 6 h): 77.0%
Oedema % inhibition ([6]; 100 mg/kg per os, 24 h): 7.2%
action against acute inflammation in words ([6]; oral and/or parenteral): inhibiting action against acute inflammation
death (healthy animals; healthy animals, doses and routes used in the experiments, long- or short-term treatments): did not provoke death
apparent signs of toxic effects (healthy animals; in vivo): nor apparent signs of toxic effects
significant toxic effects (healthy animals; in vivo): did not provoke significant toxic effects
therapeutical index (healthy animals; in vivo): high therapeutical index
% temperature decrease ([7]; 50 mg/kg i.p., 1 h): 18.0%
% temperature decrease ([7]; 50 mg/kg i.p., 2 h): 26.0%
% temperature decrease ([7]; 50 mg/kg i.p., 3 h): 39.0%
% temperature decrease ([7]; 50 mg/kg per os, 1 h): 16.0%
% temperature decrease ([7]; 50 mg/kg per os, 2 h): 20.0%
% temperature decrease ([7]; 50 mg/kg per os, 3 h): 33.0%
% temperature decrease ([7]; 75 mg/kg i.p., 1 h): 30.0%
% temperature decrease ([7]; 75 mg/kg i.p., 2 h): 35.0%
% temperature decrease ([7]; 75 mg/kg i.p., 3 h): 56.0%
% temperature decrease ([7]; 75 mg/kg per os, 1 h): 18.0%
% temperature decrease ([7]; 75 mg/kg per os, 2 h): 27.0%
% temperature decrease ([7]; 75 mg/kg per os, 3 h): 49.0%
% temperature decrease ([7]; 100 mg/kg i.p., 1 h): 42.0%
% temperature decrease ([7]; 100 mg/kg i.p., 2 h): 49.0%
% temperature decrease ([7]; 100 mg/kg i.p., 3 h): 58.0%
% temperature decrease ([7]; 100 mg/kg per os, 1 h): 29.0%
% temperature decrease ([7]; 100 mg/kg per os, 2 h): 35.0%
% temperature decrease ([7]; 100 mg/kg per os, 3 h): 50.0%
antithermic activity in words ([7]; oral and/or parenteral): considerable antithermic activity
LD50 (in vivo [8]; ip): 1200 mg/kg
LD50 (in vivo [8]; po): > 1500 mg/kg
